Among the data in the supplement of paper PMC4862054 are normalised response and normalised viability values, retold here.

Several values for one entry are separate records, joined by “and”; a condition that tells them apart may be missing. Identical values can stand only once.

What all share (conditions): incubation time: 72 h
The subject of test [1] is MDA-MB-436. Nature of the test: normalised response (% of control), CellTiter-Glo; higher = more viable cells (100 = DMSO, 0 = benzethonium chloride kill control). The essentials: (§1)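 In 384-well plates holding compound at 5 concentrations in 10-fold steps over a 10,000-fold range specific to each compound, breast cancer cell lines were seeded as 20 µl suspension and incubated 72 h. CellTox Green fluorescence was measured at 485/520 nm, after which CellTiter-Glo luminescence was measured following 10 min at room temperature. Plate signals were normalised to 0.1 % DMSO (100) and a positive kill control (0), and each value is the normalised signal at a single concentration.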
For orientation: In ATP-based viability assays light output follows the ATP content of the culture.

Test [2] deals with DU-4475. Described as above. The essentials:
as §1

In test [3] the test system is SK-BR-3. The test is described as above. The method in brief: as §1
Test [4] concerns MFM-223. Described as above. The method in brief:
as §1

The test system of test [5] is MDA-MB-468. Described as above. The essentials:
as §1

For test [6], the system named is HDQ-P1. Nature of the test: normalised viability (% of control), CellTiter-Blue; higher = more viable cells (about 100 = DMSO control). As for the experimental part: (§2)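 DSRT, CellTiter-Blue viability, 72 h incubation. Signal is normalised to DMSO and benzethonium chloride controls. Value is the normalised response at dose 9.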
In general terms: Resazurin is reduced to fluorescent resorufin, in cell work by metabolically active cells.

The subject of test [7] is DU-4475. Described as above. The method, then:
as §2

For test [8], the system named is CAL-51. Described as above. The method, then: as §2
The subject of test [9] is CAL-85-1. The description is as above. As for the experimental part:
as §2

Test [10] has as its system MDA-MB-453. Described as above. As for the experimental part: as §2
For test [11], the system named is CAL-148. Described as above. As for the experimental part:
as §2

Regarding `COc1ccc(S(=O)(=O)Nc2cccnc2Nc2ccc(O)cc2)cc1` [ABT-751] (1000 nM), the normalised response is 38.7% in test [1]; 81.6% in test [2]; 36.1% in [3]; 69.3% in test [4]; 36.9% in test [5].
For `COc1cc(Nc2c(C#N)cnc3cc(OCCCN4CCN(C)CC4)c(OC)cc23)c(Cl)cc1Cl` [Bosutinib] (1000 nM), in that order: 87.8%, 99.8%, 97.1%, 84% and 81%.
Taken in the same sequence, the figures for `CO[C@@H]1[C@H](N(C)C(=O)c2ccccc2)C[C@H]2O[C@]1(C)n1c3ccccc3c3c4c(c5c6ccccc6n2c5c31)C(=O)NC4` [Midostaurin] (1000 nM) were 77.5%, 51.5%, 61.4%, 75.8% and 26.9%.
Take `Cc1cc(Nc2nc(N[C@@H](C)c3ncc(F)cn3)ncc2Cl)[nH]n1` [AZD1480] (100 nM): the normalised response stood at 103% in [1]; 92.1% in test [2]; 91.8% in test [3]; 71.9% in [4]; 104% in test [5].
Take `O=C(CCCCCCC(=O)Nc1ccccc1)NO` [Vorinostat] (10000 nM): the normalised viability in test [6] was 51.6% and 62.6%; in test [7], 50.1% and 46.5%; in [8], 59.7% and 50.3%; in test [9], 30.1% and 32.4%; in test [10], 3.12% and 2.8%; in [11] it was 13.3% and 16%.
Regarding `CC(C)(C)NC(=O)[C@H]1CC[C@H]2[C@@H]3CC[C@H]4NC(=O)C=C[C@]4(C)[C@H]3CC[C@]12C` [Finasteride] (10000 nM), the normalised viability in test [6] was determined as 135%; in test [7], 0.15%; in test [8] it was 33.7%; in [9] it was 51.9%; in [10], 23%; in test [11] it was 36.5%.
`CC1(C)CCC(c2ccc(Cl)cc2)=C(CN2CCN(c3ccc(C(=O)NS(=O)(=O)c4ccc(N[C@H](CCN5CCOCC5)CSc5ccccc5)c(S(=O)(=O)C(F)(F)F)c4)cc3)CC2)C1` [Navitoclax] (1000 nM): the normalised response came out at 95.3% in test [1]; 85.9% in test [2]; 85.5% in test [3]; 85.8% in test [4]; 82.8% in [5].
On to `Cc1cn(-c2cc(NC(=O)c3ccc(C)c(Nc4nccc(-c5cccnc5)n4)c3)cc(C(F)(F)F)c2)cn1` [Nilotinib] (1000 nM), for which the normalised response in [1] was determined as 103%; in test [2], 97.7%; in test [3], 97.5%; in test [4], 97.3%; in test [5] it was 93%.
For the compound `CC(O)(CS(=O)(=O)c1ccc(F)cc1)C(=O)Nc1ccc(C#N)c(C(F)(F)F)c1` (configuration not stated) [Bicalutamide] (10000 nM), the normalised viability was 128% in [6]; 121% in test [7]; 112% in test [8]; 102% in [9]; 100% in test [10]; 107% in [11].
As to `CO[C@@]12[C@H](COC(N)=O)C3=C(C(=O)C(C)=C(N)C3=O)N1C[C@@H]1N[C@@H]12` [Mitomycin C] (1000 nM), the normalised response in test [1] came out at 88.3%; in test [2], 96.9%; in test [3] it was 96.7%; in test [4], 90.1%; in [5] it was 86%.
For `CCNC(=O)CCC/C=C\C[C@@H]1[C@@H](/C=C/[C@@H](O)CCc2ccccc2)[C@H](O)C[C@@H]1O` [Bimatoprost] (550 nM), in that order: 108%, 98.3%, 88.7%, 90.3% and 95.2%.
In the case of `CO[C@@H]1[C@H](N(C)C(=O)c2ccccc2)C[C@H]2O[C@]1(C)n1c3ccccc3c3c4c(c5c6ccccc6n2c5c31)C(=O)NC4` [Midostaurin] (10000 nM), the normalised viability in test [6] worked out at 80.1%; in [7], 3.76%; in test [8], 4.73%; in [9], 78.9%; in [10] it was 61.4%; in test [11] it was 86.3%.
On to `CC(=O)[C@]1(O)Cc2c(O)c3c(c(O)c2[C@@H](O[C@H]2C[C@H](N)[C@H](O)[C@H](C)O2)C1)C(=O)c1ccccc1C3=O` [Idarubicin] (100 nM), for which the normalised response stood at 65.7% in test [1]; 83.1% in test [2]; 83.4% in test [3]; 117% in [4]; 64.5% in test [5].
In the case of `Cc1cc(Nc2nc(N[C@@H](C)c3ncc(F)cn3)ncc2Cl)[nH]n1` [AZD1480] (1000 nM), the normalised viability in test [6] amounted to 137%; in [7], 74.7%; in test [8] it was 86.3%; in [9] it was 88.4%; in [10] it was 56.6%; in test [11] it was 100%.
For `CC(=O)[C@]1(O)Cc2c(O)c3c(c(O)c2[C@@H](O[C@H]2C[C@H](N)[C@H](O)[C@H](C)O2)C1)C(=O)c1ccccc1C3=O` [Idarubicin] (1000 nM), the normalised viability in test [6] is 17%; in test [7], 0.02%; in test [8] it was 1.95%; in test [9], 6.92%; in test [10] it was 11.6%; in [11], 1.34%.
As to `CCNC(=O)c1noc(-c2cc(C(C)C)c(O)cc2O)c1-c1ccc(CN2CCOCC2)cc1` [NVP-AUY922] (1000 nM), the normalised viability in test [6] was determined as 32.7%; in [7] it was 2.34%; in test [8] it was 8.3%; in test [9], 26.6%; in test [10] it was 7.53%; in test [11], 18.6%.
Consider `CNC(=O)c1ccccc1Sc1ccc2c(/C=C/c3ccccn3)n[nH]c2c1` [Axitinib] (1000 nM), for which the normalised response in [1] is 97.8%; in test [2] it was 102%; in [3], 90.5%; in [4] it was 59.8%; in [5] it was 83.9%.
Taken in the same sequence, the figures for `CC(C)C[C@H](NC(=O)[C@@H](COC(C)(C)C)NC(=O)[C@H](Cc1ccc(O)cc1)NC(=O)[C@H](CO)NC(=O)[C@H](Cc1c[nH]c2ccccc12)NC(=O)[C@H](Cc1cnc[nH]1)NC(=O)[C@@H]1CCC(=O)N1)C(=O)N[C@@H](CCCNC(=N)N)C(=O)N1CCC[C@H]1C(=O)NNC(N)=O` [Goserelin] (1000 nM) were 93.8%, 96.3%, 94.3%, 99.6% and 94.3%.
Turning to `CCNC(=O)c1noc(-c2cc(C(C)C)c(O)cc2O)c1-c1ccc(CN2CCOCC2)cc1` [NVP-AUY922] (100 nM), the normalised response in [1] was 44.6%; in test [2] it was 0.04%; in test [3], 35.8%; in test [4], 43.4%; in test [5], 28.7%.
With `O=C(CCCCCCC(=O)Nc1ccccc1)NO` [Vorinostat] (1000 nM), the normalised response in test [1] came to 89.6%; in test [2], 86.5%; in test [3], 89.5%; in test [4], 91.6%; in test [5] it was 69.4%.
